Series [1] can be described thus: Lung wet/dry ratio (Example 2). It counts as in vivo, mouse. The conditions noted are these: breathing 4 or 40 ppm NO for 22 hours. On the procedure: Lung wet/dry ratio. After euthanasia with pentobarbital (0.1 mg/g intraperitoneally), both lungs, excluding hilar structures, were excised, blotted, and immediately weighed. Thereafter, the tissue was dried in a microwave oven for 60 minutes, as described previously (20), and reweighed. Lung wet/dry ratio was calculated.

For series [2], the system named is isolated-perfused mouse lungs preconstricted with U46619. In words: Pulmonary vasodilator response to NO inhalation in isolated, perfused and ventilated mouse lungs preconstricted with U46619. Conditions: for pulmonary vasodilator response to subsequent ventilation with NO after prolonged NO breathing: prolonged breathing of 20 ppm NO. It counts as in vivo. On the procedure: Isolated, Perfused, and Ventilated Mouse Lung Model Mice were killed by intraperitoneal injection of pentobarbital sodium (200 mg/kg body weight) and placed in a 37° C. water-jacketed chamber (Isolated Perfused Lung Size 1 Type 839; Hugo-Sachs Elektronik, March-Hugstetten, Germany). The trachea was isolated and intubated, and the lungs were ventilated with 21% O2, 6% CO2 and 73% N2 using a volume-controlled ventilator (model 687; Harvard Apparatus, South Natick, Mass.) at a ventilatory rate of 85 breaths/min and 2 cm H2O end-expiratory pressure. The tidal volume was adjusted to provide a peak inspiratory pressure of 10 cm H2O throughout each study. The lungs were exposed via a midline sternotomy, and a ligataure was placaed around the aorticopulmonary outflow tract. After injection of 10 IU heparin into the right ventricle, the pulmonary artery was cannulated with a stainless steel cannula (1 mm ID) via the right ventricle. The pulmonary venous effluent was drained via a stainless steel cannula (1 mm ID) placed through the apex of the left ventricle across the mitral valve and into the left atrium. Left atrial pressure was maintained at 2 mmHg. Lungs were perfused at a constant flow (50 ml. kg body weight^−1. min^−1; Ismatec Reglo-Analogue roller pump; Laboratoriumstechnik GmbH, Wertheim-Mondfeld, Germany) with a non-recirculating system at 37° C. The perfusate used was Hanks' Balanced Salt Solution (GibcoBRL, Grand Island, N.Y.) containing 1.26 mM CaCl2, 5.33 mM KCl, 0.44 mM KH2PO4, 0.50 mM MgCl2, 0.41 mM MgSO4, 138.0 mM NaCl, 4.0 mM NaHCO3, 0.3 mM Na2HPO4, and 5.6 mM glucose. Bovine serum albumin, 5%, and dextran, 5% (both from Sigma Chemical Co., St. Louis, Mo.), were added to the perfusate to prevent pulmonary edema, in the isolated, perfused, and ventilated rat lung, essentially as described in Holzmann et al., 1996, Am. J. Physiol. 271:L981-L986. Indomethacin, […] (Sigma Chemical Co.), and 1 mM L-NAME (Sigma Chemical Co.) were added to the perfusate to inhibit endogenous prostaglandin and NO synthesis, respectively. Sodium bicarbonate was added to adjust the perfusate pH to 7.34-7.43.
Pulmonary artery pressure (PAP) and left atrial pressure were measured via saline-filled membrane pressure transducers (Argon, Athens, Tex.) connected to a side port of the inflow and outflow cannulae, respectively. Airway pressure (Paw) was measured using a differential pressure transducer (model MP-45-32-871; Validyne Engineering Corp., Northridge, Calif.) connected to the inspiratory limb just before the Y piece. Pressure transducers were connected to a biomedical amplifier (Hewlett Packard 7754B, Andover, Mass.), and data were recorded at 150 Hz on a personal computer using an analog-to-digital interface with a data acquisition system (DI-220; Dataq Instruments, Akron, Ohio). The system was calibrated before each experiment.
For NO inhalation, NO gas (800 or 80 ppm NO in nitrogen, Airco, Murray Hill, N.J.) was blended (Oxygen Blender; Bird Corporation, Palm Springs, Calif.) with oxygen, carbon dioxide, and nitrogen to achieve a final concentration of 21% O2, 6% CO2, and the desired NO concentration. NO and higher oxidative states of NO (NOx; CLD 700 AL; Eco Physics, Dürmten, Switzerland), oxygen (Hudson Ventronics Ddivision, Temecula, Calif.), and carbon dioxide (Datex CO2 monitor; Puritan-Bennett Corpration, Los Angeles, Calif.) concentrations were monitored continuously.
Pulmonary Vascular Response to NO inhalation after Lipopolysaccharide Challenge Wild-type mice and NOS2-deficient mice were injected intraperitoneally with 50 mg/kg body weight Escherichia coli 0111:B4 lipopolysaccharide (LPS; Difco Laboratories, Detroit, Mich.) dissolved in saline 16 h before isolated lung perfusion. This time point was chosen based on previous studies in rats (Holzmann et al., 1996, Am. J. Physiol. 271:L981-L986). Untreated wild-type and NOS2-deficient mice served as controls. […]

Series [3] in a line: Wet-to-dry lung weight ratio after isolated lung perfusion (Example 1). It counts as in vivo, mouse. Conditions: exposure to NO inhalation for 16 h. On the procedure: Wet-to-Dry Lung Weight Ratio At the end of each experiment, both lungs, excluding hilar structures, were excised and weighed (wet weight). Thereafter, the lungs were dried in a microwave oven for 60 min, as previously described (Holzmann et al., supra), and then reweighed (dry weight). Wet-to-dry lung weight ratios were calculated by dividing the wet weight by the dry weight.

As for `[N]=O` [NO, Nitric oxide], the “wet/dry lung weight ratios” value in series [1] was “did not alter”. In addition, the “effect of NO inhalation on PAP” value in series [2] (0.4, 4 and 40 ppm NO for 5 min each, all groups) is reported as “decreased the PAP in a dose-dependent manner”. The “ΔPAP (change in PAP by inhaled NO as percentage of U46619-induced increase)” value in series [2] (0.4 ppm NO, lipopolysaccharide-pretreated NOS2-deficient mice exposed to 20 ppm ambient NO for 16 h) is recorded as −24±4%; in series [2] (0.4 ppm NO, untreated control NOS2-deficient mice exposed to 20 ppm ambient NO for 16 h) it was −42±4%; in series [2] (4 ppm NO, lipopolysaccharide-pretreated NOS2-deficient mice exposed to 20 ppm ambient NO for 16 h), −39±5%; in series [2] (4 ppm NO, untreated control NOS2-deficient mice exposed to 20 ppm ambient NO for 16 h) it was −58±4%; in series [2] (40 ppm NO, lipopolysaccharide-pretreated NOS2-deficient mice exposed to 20 ppm ambient NO for 16 h), −55±3%; in series [2] (40 ppm NO, untreated control NOS2-deficient mice exposed to 20 ppm ambient NO for 16 h), −62±5%. Besides, the “subsequent responsiveness to short-term inhaled NO after prolonged NO breathing” value in series [2] (breathing 0.2 ppm NO for 16 h after lipopolysaccharide, NOS2-deficient mice) is “did not cause subsequent hyporesponsiveness”. Moreover, the “subsequent vasodilator response to 0.4 ppm NO inhalation after prolonged NO breathing” value in series [2] (breathing 2 ppm NO for 16 h after lipopolysaccharide, NOS2-deficient mice, compared with control mice) is recorded as “decreased the vasodilator response”. Also, the “pulmonary vasodilator response to subsequent ventilation with NO after prolonged NO breathing” value is given as “markedly impaired the pulmonary vasodilator response” in series [2] (endotoxin-challenged NOS2-deficient mice) and “does not impair the pulmonary vasodilator response” in series [2] (untreated wild-type or NOS2-deficient mice). The “wet-to-dry lung weight ratio” value in series [3] (lipopolysaccharide-pretreated NOS2-deficient mice) worked out at 5.1±0.2; in series [3] (lipopolysaccharide-pretreated wild-type mice) it was 4.9±0.1; in series [3] (untreated NOS2-deficient mice), 4.8±0.1; in series [3] (untreated wild-type mice), 4.5±0.3.

The record behind these values is patent US6935334B2, “Enhancing therapeutic effectiveness of nitric oxide inhalation” (The General Hospital Corporation, priority 2000, dated 2005).
